Each block holds one compound with its values, some of them ahead of it. Active and inactive are the calls of the source. No cut-off for these calls is given here.
What was measured:
[1] = Drug metabolism in carboxylesterase (unknown origin) assessed as formation of active photosensitizer 6-amino-5-iodo-1H-phenalen-1-one at 10 uM under by LC-MS/MS analysis assay; format: ADME; conditions: human
MDA-MB-231 [2] = assay: Anticancer activity against human MDA-MB-231 cells assessed as number of dead cells at 2.5 uM preincubated for 12 hrs followed by photoirradiation with 500 to 700nm and 12 J/cm^2 LED light for 10 mins by calcein-AM and propidium iodide staining based flow cytometry; format: functional, cell-based; conditions: time 12.2 hrs
[3] = Induction of singlet oxygen production in ethanol assessed as singlet oxygen quantum yield at 410nm under photoirradiation with 550nm and 10 mW/cm^2 LED light for 10 to 80 secs by DPBF based microplate reader analysis; format: functional; conditions: time 10-80 sec
[4] = Stability of compound in H2O2 at 10 uM incubated for 30 mins by fluorescence assay; format: physicochemical; conditions: 0.5 h
MDA-MB-231 [5] = assay: Anticancer activity against human MDA-MB-231 cells assessed as number of dead cells at 2.5 uM incubated for 12 hrs by calcein-AM and propidium iodide staining based flow cytometry; format: functional, cell-based
[6] = Drug metabolism in human MDA-MB-231 cells assessed as increase in SR expression at 5 uM incubated for 12 hrs by flow cytometry analysis; format: ADME, cell-based; conditions: mda-mb-231, 12 h
[7] = Drug metabolism in carboxylesterase (unknown origin) assessed as formation of active photosensitizer 6-amino-5-iodo-1H-phenalen-1-one by measuring increase in fluorescence at 610nM at 10 uM under by fluorescence assay; format: ADME; conditions: human
[8] = Stability of compound in various pH; format: physicochemical
[9] = Stability of compound in GSH at 10 uM incubated for 30 mins by fluorescence assay; format: physicochemical; conditions: 0.5 h
MDA-MB-231 [10] = assay: Anticancer activity against human MDA-MB-231 cells assessed as reduction in cell viability preincubated for 12 hrs followed by photoirradiation with 500 to 700nm and 12 J/cm^2 LED light for 24 hrs by CCK-8 assay; format: functional, cell-based; conditions: MDA-MB-231, light or radiation study
4T1 [11] = assay: Anticancer activity against mouse 4T1 cells assessed as reduction in cell viability at 0.01 to 10 uM incubated for 24 hrs by CCK-8 assay; format: functional, cell-based; conditions: dose 0.01-10 µM
MDA-MB-231 [12] = assay: Anticancer activity against human MDA-MB-231 cells assessed as reduction in cell viability at 0.01 to 10 uM incubated for 24 hrs by CCK-8 assay; format: functional, cell-based; conditions: dose 0.01-10 µM
[13] = Photostability of compound in EtOH assessed as compound decomposition at 50 uM incubated for 5 to 20 mins under photoirradiation with 550nm and 10 J/cm^2 LED light by UV-visible spectroscopic analysis; format: physicochemical; conditions: time 5-20 min
4T1 [14] = assay: Anticancer activity against mouse 4T1 cells assessed as reduction in cell viability preincubated for 12 hrs followed by photoirradiation with 500 to 700nm and 12 J/cm^2 LED light for 24 hrs by CCK-8 assay; format: functional, cell-based; conditions: 4T1, light or radiation study
[15] = Stability of compound in gamma-glutamyl transpeptidase at 10 uM incubated for 30 mins by fluorescence assay; format: physicochemical; conditions: 0.5 h
4T1 [16] = assay: Anticancer activity against mouse 4T1 cells assessed as reduction in cell viability incubated for 24 hrs in presence of irradiation with 500 to 700nm and 12 J/cm^2 LED light by CCK-8 assay; format: functional, cell-based; conditions: 4T1, light or radiation study
[17] = Drug uptake in human MDA-MB-231 cells assessed as increase in intracellular uptake at 5 uM incubated for 10 mins by flow cytometry analysis; format: ADME, cell-based; conditions: mda-mb-231, 10 min
4T1 [18] = assay: Anticancer activity against mouse 4T1 cells assessed as fold increase in gamma-H2A.X protein expression at 1 uM preincubated for 2 hrs followed by photoirradiation with 500 to 700nm and 12 J/cm^2 LED light and measured after 24 hrs by Western blot analysis relative to control; format: functional; conditions: time 26 hrs
[19] = Induction of singlet oxygen production in ethanol assessed as change in absorption spectra at 380nm under photoirradiation with 550nm and 10 J/cm^2 LED light for 2 to 20 mins by ABDA based microplate reader analysis; format: functional; conditions: time 2-20 min
MDA-MB-231 [20] = assay: Anticancer activity against human MDA-MB-231 cells assessed as reduction in cell viability incubated for 24 hrs in presence of irradiation with 500 to 700nm and 12 J/cm^2 LED light by CCK-8 assay; format: functional, cell-based; conditions: MDA-MB-231, light or radiation study
MDA-MB-231 [21] = assay: Phototoxicity against human MDA-MB-231 cells assessed as reduction in cell viability incubated for 24 hrs in presence of irradiation with 500 to 700nm and 12 J/cm^2 LED light by CCK-8 assay; format: functional, cell-based
[22] = Induction of superoxide anion radical production in aqueous solution assessed as increase in fluorescence intensity at 5 uM under photoirradiation with 550nm and 10 J/cm^2 LED light and measured after 8 mins by DHR123 based fluorescence spectroscopic analysis
MDA-MB-231 [23] = assay: Anticancer activity against human MDA-MB-231 cells assessed as reduction in cell viability at 1 uM incubated for 24 hrs in presence of irradiation with 500 to 700nm and 12 J/cm^2 LED light by CCK-8 assay; format: functional, cell-based
MDA-MB-231 [24] = assay: Induction of intracellular ROS generation in human MDA-MB-231 cells assessed as fold increase in intracellular ROS level at 2.5 uM incubated for 2 hrs followed by under photoirradiation with 500 to 700nm and 12 J/cm^2 LED light by DCFH-DA staining based fluorometric analysis relative dark control group; format: functional
4T1 [25] = assay: Anticancer activity against mouse 4T1 cells assessed as fold increase in cleaved caspase-3 protein expression at 1 uM preincubated for 2 hrs followed by photoirradiation with 500 to 700nm and 12 J/cm^2 LED light and measured after 24 hrs by Western blot analysis relative to control; format: functional; conditions: time 26 hrs
[26] = Drug uptake in human MDA-MB-231 cells assessed as increase in intracellular uptake at 5 uM incubated for 2 hrs by flow cytometry analysis; format: ADME, cell-based; conditions: mda-mb-231, 2 h
4T1 [27] = assay: Anticancer activity against mouse 4T1 cells assessed as reduction in cell viability at 1 uM incubated for 24 hrs under photoirradiation with 500 to 700nm and 12 mW/cm^2 LED light by CCK-8 assay; format: functional, cell-based
[28] = Drug localization in lysosome of human MDA-MB-231 cells assessed as increase in apparent yellow fluorescent signal at 5 uM incubated for 2 hrs by Lyso-Tracker Green, ER-Tracker Green, Mito-Tracker Green and Hoechst 33342 staining based confocal laser scanning microscopy; format: ADME, subcellular; conditions: mda-mb-231, 2 h
MDA-MB-231 [29] = assay: Anticancer activity against human MDA-MB-231 cells assessed as reduction in cell viability incubated for 24 hrs by CCK-8 assay; format: functional, cell-based; conditions: MDA-MB-231, 24 h

- Stability [4]: Stable
- Drug metabolism [6]: Metabolite_Detected
- Stability [8]: Stable
- Stability [9]: Stable
- IC50 (MDA-MB-231 [10]): 4 µM
- Stability [13]: Stable
- IC50 (4T1 [14]): 4.8 µM
- Stability [15]: Stable
SMILES: O=C(Nc1c(I)cc2c3c(cccc13)C(=O)C=C2)c1ccccc1
- Drug metabolism [1]: Metabolite_Detected
- Activity (MDA-MB-231 [2]): Active
- Activity [3]: 0.1
- Activity (MDA-MB-231 [5]): inactive
- Drug metabolism [7]: Metabolite_Detected
- Activity (4T1 [11]): Active
- Activity (MDA-MB-231 [12]): Active

- IC50 (4T1 [16]): 0.59 µM
- Drug uptake [17]: Active
- IC50 (MDA-MB-231 [20]): 0.66 µM
- Stability [13]: Stable
- Drug uptake [26]: Active
- Drug uptake [28]: Active
- IC50 (MDA-MB-231 [29]): > 50 µM
SMILES: Nc1c(I)cc2c3c(cccc13)C(=O)C=C2
- fold change (FC) (4T1 [18]): 2.36
- Activity [19]: Active
- Activity (MDA-MB-231 [21]): Active
- Activity [22]: Active
- Activity (MDA-MB-231 [23]): Active
- fold change (FC) (MDA-MB-231 [24]): 5.54
- fold change (FC) (4T1 [25]): 3.09
- Activity (4T1 [27]): Active

SMILES: Nc1ccc2c3c(cccc13)C(=O)C=C2
- Activity [19]: inactive

Source: ChEMBL document CHEMBL5321227, “Lysosome-targeting phenalenones as efficient type I/II photosensitizers for anticancer photodynamic therapy” (Eur J Med Chem, 2023)
